O=C(O)c1ccc(C(=O)O)o1
Conditions	solubility (mole fraction)
in acetic acid, 303.55 K	0.000242
in acetic acid, 313.25 K	0.000319
in acetic acid, 322.95 K	0.000471
in acetic acid, 332.75 K	0.000656
in acetic acid, 342.45 K	0.000874
in acetic acid, 352.25 K	0.00111
in ethanol, 299.35 K	0.00298
in ethanol, 305.35 K	0.00337
in ethanol, 311.25 K	0.004
in ethanol, 319.25 K	0.00478
in ethanol, 323.15 K	0.00526
in ethanol, 328.95 K	0.0062
in ethanol, 334.75 K	0.0072
in ethanol, 340.55 K	0.00814
in ethanol, 346.35 K	0.0093
in methanol, 297.35 K	0.00371
in methanol, 303.35 K	0.00408
in methanol, 309.35 K	0.00484
in methanol, 315.25 K	0.00563
in methanol, 321.15 K	0.00661
in methanol, 326.85 K	0.00758
in methanol, 332.65 K	0.00884
in water, 303.55 K	0.000141
in water, 313.25 K	0.000195
in water, 322.95 K	0.000302
in water, 332.75 K	0.00047
in water, 342.45 K	0.000672
in water, 352.25 K	0.000873
